{"source": "patent US4051237A", "about": "“Glycopeptide antibiotics Bu-2231 A and B and process for producing same” (priority 1975, dated 1977)", "type_in_all_cases": "cell-based", "key": {"Mycobacterium 607, D47": {"tested_on": "Mycobacterium 607, D47", "assay": "MIC by two-fold agar dilution", "conditions": "Medium #1001, unit assumed"}, "B. sphaericus #122": {"tested_on": "B. sphaericus #122", "assay": "MIC by two-fold agar dilution", "conditions": "Mueller-Hinton agar, unit assumed"}, "M. flavus D12": {"tested_on": "M. flavus D12", "assay": "MIC by two-fold agar dilution", "conditions": "Mueller-Hinton agar, unit assumed"}, "P. rettgeri A15167": {"tested_on": "P. rettgeri A15167", "assay": "MIC by two-fold agar dilution", "conditions": "Mueller-Hinton agar, unit assumed"}, "B. cereus ATCC 10702A": {"tested_on": "B. cereus ATCC 10702A", "assay": "MIC by two-fold agar dilution", "conditions": "Mueller-Hinton agar, unit assumed"}, "P. stuartii A20734": {"tested_on": "P. stuartii A20734", "assay": "MIC by two-fold agar dilution", "conditions": "Mueller-Hinton agar, unit assumed"}, "S. aureus 209P": {"tested_on": "S. aureus 209P", "assay": "MIC by two-fold agar dilution", "conditions": "Mueller-Hinton agar, unit assumed"}, "C. krusei IAM 4489": {"tested_on": "C. krusei IAM 4489", "assay": "MIC by two-fold agar dilution", "conditions": "Ck-1 C. krusei IAM 4489; sabouraud agar; unit assumed"}, "S. lutea PCI-1001": {"tested_on": "S. lutea PCI-1001", "assay": "MIC by two-fold agar dilution", "conditions": "Mueller-Hinton agar, unit assumed"}, "Mucor sp.": {"tested_on": "Mucor sp.", "assay": "MIC by two-fold agar dilution", "conditions": "My-1 Mucor sp.; sabouraud agar; unit assumed"}, "Hormodendrum sp.": {"tested_on": "Hormodendrum sp.", "assay": "MIC by two-fold agar dilution", "conditions": "Hy-1 Hormodendrum sp.; sabouraud agar; unit assumed"}, "P morganii A9553": {"tested_on": "P morganii A9553", "assay": "MIC by two-fold agar dilution", "conditions": "Mueller-Hinton agar, unit assumed"}, "P. aeruginosa H9, D113": {"tested_on": "P. aeruginosa H9, D113", "assay": "MIC by two-fold agar dilution", "conditions": "Mueller-Hinton agar, unit assumed"}, "T. mentagrophytes D-155": {"tested_on": "T. mentagrophytes D-155", "assay": "MIC by two-fold agar dilution", "conditions": "Tm-1 T. mentagrophytes D-155; sabouraud agar; unit assumed"}, "P. stuartii A20894": {"tested_on": "P. stuartii A20894", "assay": "MIC by two-fold agar dilution", "conditions": "Mueller-Hinton agar, unit assumed"}, "S. cerevisiae ATCC 9763": {"tested_on": "S. cerevisiae ATCC 9763", "assay": "MIC by two-fold agar dilution", "conditions": "Sc-1 S. cerevisiae ATCC 9763; sabouraud agar; unit assumed"}, "S. aureus A20239": {"tested_on": "S. aureus A20239", "assay": "MIC by two-fold agar dilution", "conditions": "Mueller-Hinton agar, unit assumed"}, "B. anthracis 115": {"tested_on": "B. anthracis 115", "conditions": "Mueller-Hinton agar, unit assumed"}, "[1]": {"tested_on": "C. albicans #520 Yale A9540", "assay": "MIC by two-fold agar dilution", "conditions": "Ca-4 C. albicans #520 Yale A9540; sabouraud agar; unit assumed"}, "C. albicans IAM 4888": {"tested_on": "C. albicans IAM 4888", "assay": "MIC by two-fold agar dilution", "conditions": "Ca-1 C. albicans IAM 4888; sabouraud agar; unit assumed"}, "S. marcescens A20333": {"tested_on": "S. marcescens A20333", "assay": "MIC by two-fold agar dilution", "conditions": "Mueller-Hinton agar, unit assumed"}, "E. coli Juhl A15119": {"tested_on": "E. coli Juhl A15119", "assay": "MIC by two-fold agar dilution", "conditions": "Mueller-Hinton agar, unit assumed"}, "T. rubrum D-55": {"tested_on": "T. rubrum D-55", "assay": "MIC by two-fold agar dilution", "conditions": "Tr-1 T. rubrum D-55; sabouraud agar; unit assumed"}, "K. pneumoniae A9678": {"tested_on": "K. pneumoniae A9678", "assay": "MIC by two-fold agar dilution", "conditions": "Mueller-Hinton agar, unit assumed"}, "B. subtilis PCI-219": {"tested_on": "B. subtilis PCI-219", "assay": "MIC by two-fold agar dilution", "conditions": "Mueller-Hinton agar, unit assumed"}, "P. aeruginosa A20741": {"tested_on": "P. aeruginosa A20741", "assay": "MIC by two-fold agar dilution", "conditions": "Mueller-Hinton agar, unit assumed"}, "P. aeruginosa A9930": {"tested_on": "P. aeruginosa A9930", "assay": "MIC by two-fold agar dilution", "conditions": "Mueller-Hinton agar, unit assumed"}, "C. krusei #96 A15052": {"tested_on": "C. krusei #96 A15052", "assay": "MIC by two-fold agar dilution", "conditions": "Ck-2 C. krusei #96 A15052; sabouraud agar; unit assumed"}, "P. vulgaris A9436": {"tested_on": "P. vulgaris A9436", "assay": "MIC by two-fold agar dilution", "conditions": "Mueller-Hinton agar, unit assumed"}, "S. aureus 209P, R4": {"tested_on": "S. aureus 209P, R4", "assay": "MIC by two-fold agar dilution", "conditions": "Mueller-Hinton agar, unit assumed", "description": "The minimum inhibitory concentrations (MIC) of Bu-2231 A and B were determined against a wide variety of bacteria and fungi by the two-fold agar dilution method. Mueller-Hinton agar medium was used for the determination of bacterial MIC's (gram-positive and gram-negative), Medium #1001 [Glycerol (3%). Na-glutamate (0.3%), peptone (0.2%), Na2 HPO4 (0.31%), KH2 PO4 (0.1%), ammonium citrate (0.005%), MgSO4.7H2 O (0.001%), agar (1.5%)] for acid-fast bacteria and sabouraud agar for fungi. The results are shown in Tables 9 and 10 comparatively with bleomycin and phleomycin. The antibacterial and antifungal activities of Bu-2231 A and B are much higher than those of the reference antibiotics."}, "C. neoformans IAM 4514": {"tested_on": "C. neoformans IAM 4514", "assay": "MIC by two-fold agar dilution", "conditions": "Cn-2 C. neoformans IAM 4514; sabouraud agar; unit assumed"}, "C. tropicalis IAM 4157": {"tested_on": "C. tropicalis IAM 4157", "assay": "MIC by two-fold agar dilution", "conditions": "Ct-1 C. tropicalis IAM 4157; sabouraud agar; unit assumed"}, "B. mycoides \"0\"": {"tested_on": "B. mycoides \"0\"", "conditions": "Mueller-Hinton agar, unit assumed"}, "E. cloacae A21006": {"tested_on": "E. cloacae A21006", "assay": "MIC by two-fold agar dilution", "conditions": "Mueller-Hinton agar, unit assumed"}, "Mycobacterium 607, D46": {"tested_on": "Mycobacterium 607, D46", "assay": "MIC by two-fold agar dilution", "conditions": "Medium #1001, unit assumed"}, "K. pneumoniae A20680": {"tested_on": "K. pneumoniae A20680", "assay": "MIC by two-fold agar dilution", "conditions": "Mueller-Hinton agar, unit assumed"}, "E. coli A20683": {"tested_on": "E. coli A20683", "assay": "MIC by two-fold agar dilution", "conditions": "Mueller-Hinton agar, unit assumed"}, "E. coli K-12 A9632": {"tested_on": "E. coli K-12 A9632", "assay": "MIC by two-fold agar dilution", "conditions": "Mueller-Hinton agar, unit assumed"}, "C. neoformans (Cn-1)": {"tested_on": "C. neoformans (Cn-1)", "assay": "MIC by two-fold agar dilution", "conditions": "Cn-1 C. neoformans; sabouraud agar; unit assumed"}, "P. citrinum IAM 7008": {"tested_on": "P. citrinum IAM 7008", "assay": "MIC by two-fold agar dilution", "conditions": "Pt-1 P. citrinum IAM 7008; sabouraud agar; unit assumed"}, "S. marcescens A21235": {"tested_on": "S. marcescens A21235", "assay": "MIC by two-fold agar dilution", "conditions": "Mueller-Hinton agar, unit assumed"}, "S. aureus #193": {"tested_on": "S. aureus #193", "assay": "MIC by two-fold agar dilution", "conditions": "Mueller-Hinton agar, unit assumed"}}, "data": [{"smiles": "Cc1c(N)nc([C@H](CC(N)=O)NC[C@H](N)C(N)=O)nc1C(=O)N[C@H](C(=O)N[C@H](C)[C@@H](O)CC(=O)N[C@H](C(=O)NC(O[C@@H]1O[C@@H](C)[C@@H](N)[C@@H](O)[C@H]1O)C(O)c1nc(-c2nc(C(=O)NCCCC(N)CC(=O)NCCCNCCCCN)cs2)cs1)[C@@H](C)O)[C@H](O[C@@H]1O[C@@H](CO)[C@@H](O)[C@H](O)[C@@H]1O[C@H]1O[C@H](CO)[C@@H](O)[C@H](OC(N)=O)[C@@H]1O)c1c[nH]cn1", "note": "(stereo partly drawn) [Bu-2231 A Cu-free]", "values": [{"measurement": "MIC", "setting": "Mycobacterium 607, D47", "value": 0.1, "unit": "µg/mL"}, {"measurement": "MIC", "setting": "B. sphaericus #122", "value": "< 0.0063", "unit": "µg/mL"}, {"measurement": "MIC", "setting": "M. flavus D12", "value": 0.2, "unit": "µg/mL"}, {"measurement": "MIC", "setting": "P. rettgeri A15167", "value": 0.4, "unit": "µg/mL"}, {"measurement": "MIC", "setting": "B. cereus ATCC 10702A", "value": 0.2, "unit": "µg/mL"}, {"measurement": "MIC", "setting": "P. stuartii A20734", "value": 0.4, "unit": "µg/mL"}, {"measurement": "MIC", "setting": "S. aureus 209P", "value": 0.1, "unit": "µg/mL"}, {"measurement": "MIC", "setting": "C. krusei IAM 4489", "value": 0.8, "unit": "µg/mL"}, {"measurement": "MIC", "setting": "S. lutea PCI-1001", "value": 0.2, "unit": "µg/mL"}, {"measurement": "MIC", "setting": "Mucor sp.", "value": 6.3, "unit": "µg/mL"}, {"measurement": "MIC", "setting": "Hormodendrum sp.", "value": 0.8, "unit": "µg/mL"}, {"measurement": "MIC", "setting": "P morganii A9553", "value": 0.4, "unit": "µg/mL"}, {"measurement": "MIC", "setting": "P. aeruginosa H9, D113", "value": "> 100", "unit": "µg/mL"}, {"measurement": "MIC", "setting": "T. mentagrophytes D-155", "value": 12.5, "unit": "µg/mL"}, {"measurement": "MIC", "setting": "P. stuartii A20894", "value": 0.4, "unit": "µg/mL"}, {"measurement": "MIC", "setting": "S. cerevisiae ATCC 9763", "value": 0.4, "unit": "µg/mL"}, {"measurement": "MIC", "setting": "S. aureus A20239", "value": 0.2, "unit": "µg/mL"}, {"measurement": "MIC", "setting": "B. anthracis 115", "value": 0.05, "unit": "µg/mL"}, {"measurement": "MIC", "setting": "[1]", "value": 3.1, "unit": "µg/mL"}, {"measurement": "MIC", "setting": "C. albicans IAM 4888", "value": 0.8, "unit": "µg/mL"}, {"measurement": "MIC", "setting": "S. marcescens A20333", "value": 0.2, "unit": "µg/mL"}, {"measurement": "MIC", "setting": "E. coli Juhl A15119", "value": 0.1, "unit": "µg/mL"}, {"measurement": "MIC", "setting": "T. rubrum D-55", "value": 3.1, "unit": "µg/mL"}, {"measurement": "MIC", "setting": "K. pneumoniae A9678", "value": 0.2, "unit": "µg/mL"}, {"measurement": "MIC", "setting": "B. subtilis PCI-219", "value": "< 0.0063", "unit": "µg/mL"}, {"measurement": "MIC", "setting": "P. aeruginosa A20741", "value": 0.2, "unit": "µg/mL"}, {"measurement": "MIC", "setting": "P. aeruginosa A9930", "value": 0.4, "unit": "µg/mL"}, {"measurement": "MIC", "setting": "C. krusei #96 A15052", "value": 0.8, "unit": "µg/mL"}, {"measurement": "MIC", "setting": "P. vulgaris A9436", "value": 0.2, "unit": "µg/mL"}, {"measurement": "MIC", "setting": "S. aureus 209P, R4", "value": 0.4, "unit": "µg/mL"}, {"measurement": "MIC", "setting": "C. neoformans IAM 4514", "value": 0.4, "unit": "µg/mL"}, {"measurement": "MIC", "setting": "C. tropicalis IAM 4157", "value": 0.8, "unit": "µg/mL"}, {"measurement": "MIC", "setting": "B. mycoides \"0\"", "value": 0.2, "unit": "µg/mL"}, {"measurement": "MIC", "setting": "E. cloacae A21006", "value": 1.6, "unit": "µg/mL"}, {"measurement": "MIC", "setting": "Mycobacterium 607, D46", "value": 0.1, "unit": "µg/mL"}, {"measurement": "MIC", "setting": "K. pneumoniae A20680", "value": 6.3, "unit": "µg/mL"}, {"measurement": "MIC", "setting": "E. coli A20683", "value": 6.3, "unit": "µg/mL"}, {"measurement": "MIC", "setting": "E. coli K-12 A9632", "value": 0.05, "unit": "µg/mL"}, {"measurement": "MIC", "setting": "C. neoformans (Cn-1)", "value": 0.4, "unit": "µg/mL"}, {"measurement": "MIC", "setting": "P. citrinum IAM 7008", "value": 1.6, "unit": "µg/mL"}, {"measurement": "MIC", "setting": "S. marcescens A21235", "value": 0.2, "unit": "µg/mL"}, {"measurement": "MIC", "setting": "S. aureus #193", "value": 0.1, "unit": "µg/mL"}]}]}
